Source: US11572590B2, “Methods for evaluating tumor cell spheroids using 3D microfluidic cell culture device” (Dana-Farber Cancer Institute, Inc., priority 2017, dated 2023)

Target: T1, off-target kinases (Homo sapiens, UniProt O43318)
T1 sequence (O43318 1-606): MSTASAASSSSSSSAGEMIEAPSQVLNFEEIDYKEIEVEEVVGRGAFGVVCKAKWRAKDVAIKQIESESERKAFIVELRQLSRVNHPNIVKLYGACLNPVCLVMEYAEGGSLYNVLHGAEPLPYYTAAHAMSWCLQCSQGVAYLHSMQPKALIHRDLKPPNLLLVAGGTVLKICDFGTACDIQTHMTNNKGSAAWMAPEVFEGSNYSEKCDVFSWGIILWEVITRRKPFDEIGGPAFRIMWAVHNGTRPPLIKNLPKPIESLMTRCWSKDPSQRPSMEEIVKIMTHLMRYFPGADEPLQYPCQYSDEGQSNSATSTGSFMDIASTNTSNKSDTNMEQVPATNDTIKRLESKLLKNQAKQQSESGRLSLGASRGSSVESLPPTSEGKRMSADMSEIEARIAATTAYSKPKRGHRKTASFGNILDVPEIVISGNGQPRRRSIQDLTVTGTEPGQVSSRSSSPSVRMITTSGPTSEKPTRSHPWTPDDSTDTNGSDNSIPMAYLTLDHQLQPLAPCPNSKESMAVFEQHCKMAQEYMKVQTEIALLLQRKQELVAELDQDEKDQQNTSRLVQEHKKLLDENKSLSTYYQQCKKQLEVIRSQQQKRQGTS
Assay: SelectScreen Kinase Profiling, single point inhibition and IC50 for off-target kinases
Assay type: biochemical
Parameters: other: MAP3K7/MAP3K7IP1 (TAK1-TAB1); 1000 μM; fused on or other part: TAB1 (MAP3K7IP1, Q15750), either fused to TAK1 or present as a separate partner chain
Details: MAP3K7/MAP3K7IP1 (TAK1-TAB1); LanthaScreen Binding; 1000 μM
Method: Biochemical single point inhibition and IC50 concentrations for TBK1, IKKε (IKBKE), and off-target kinases were determined at ThermoFisher Scientific using SelectScreen Kinase Profiling Services (Madison, Wis., USA) (Tables S4A and S4B-1-7). To determine cellular potency, the human colorectal cancer carcinoma cell line HCT116 (ATCC, Manassas, Va.) was maintained in T175 flasks in complete RPMI medium; RPMI 1640 supplemented with 10% FBS, 1× Penicillin-Streptomycin solution and 1×MEM (non-essential amino acids). HCT116 cells were grown to 90-95% confluency in T175 flasks containing complete RPMI medium and transfected in bulk using Lipofectamine 2000 (Invitrogen, Carlsbad, Calif.) with 70 μg of ISG54-luciferase reporter plasmid (Elim Biopharmaceuticals Inc., Hayward, Calif.). The reporter plasmid contains a luciferase gene expression cassette under the transcriptional regulation of the promoter of the human interferon stimulated gene 54 (ISG54). […] The assay plates were incubated for 5 hours at 37° C., followed by addition of One-Glo luciferase firefly reagent (Promega, Madison, Wis.) at 1:1 volume/well and luminescence was measured in an EnVision Multilabel Plate Reader (PerkinElmer, Santa Clara, Calif.). The EC50 values were calculated from the fit of the dose-response curves to a four-parameter equation. […]

N#Cc1cc(-c2ncnc(Nc3ccc(N4CCN(C5COC5)CC4)cc3)n2)ccc1OC1CCOCC1 [Compound 1, 5-(4-((4-(4-(oxetan-3-yl)piperazin-1-yl)phenyl)amino)-1,3,5-triazin-2-yl)-2-((tetrahydro-2H-pyran-4-yl)oxy)benzonitrile]
% Inhibition 1: 22%
